From patent US11969397B2, “Composition for preventing and treating transplant rejection or transplant rejection diseases, comprising novel compound and calcineurin inhibitor” (THE CATHOLIC UNIVERSITY OF KOREA INDUSTRY-ACADEMIC …, priority 2018, dated 2024) come the findings set out here.

In one test the test system is allogenic T cells. Put plainly: T cell proliferation in in vitro allogenic transplantation model (mouse cells). In kind it is cell-based. The note with it: cultured 4 days; for T cell proliferation (3H-thymidine incorporation, FIG. 1): SD282 alone 250 μM or more, FK506 alone 1 and 5 nM, combination FK506 1 and 5 nM + SD282 250 μM; for T cell proliferation (flow cytometry, FIG. 2): SD282 alone, FK506 alone or combination. As for the experimental part: (§1) CD4+ T cells derived from a normal recipient (Balb/c, responder) (2×10^5 cells) were injected into each well of a 96-well round bottom plate, in vitro. Thereafter, for syngenic transplantation, normal recipient-derived T cell-removed splenocytes (2×10^5 cells), which had been irradiated with radiation, were added to each of the wells, followed by culturing under mixing. For allogenic transplantation, donor (C57BL/6, stimulator)-derived T cell-removed splenocytes were added to each of the wells, followed by culturing under mixing.
In order to evaluate T cell proliferations according to the treatment with SD282 alone, FK506 alone or in combination thereof, the untreated syngenic group and the untreated allogenic group of Example 1-1 were used as controls. The allogenic model was treated with 50, 250 and 500 μM of SD282 alone or 1 and 5 nM of FK506 alone. And, FK506 (1 and 5 nM) and SD282 (250 μM) were treated in combination, respectively. After the treatments, each group was cultured for 4 days and then alloresponses were evaluated by observing the T cell proliferations of the cultured cells, according to the 3H-thymidine incorporation method, the CFSE assay method, or the flow cytometry method.
In addition, in order to evaluate the synergistic effect according to the treatment of SD282 and FK506 in combination, the Combination Index (CI) value (drug treatment) was calculated. The CI value was obtained by the following equation. A value of 1 or less means that there is a synergistic effect between the combination of two drugs, and a value of 1 or more means that there is an antagonistic effect between the combination of two drugs.
In general terms: Uptake of a labelled nucleoside into DNA is a usual measure of proliferation.

For a further test, the system named is pathogenic Th17 cells. Put plainly: Inhibition of pathogenic Th17 cells / IL-17 in in vitro allogenic model (mouse cells). In kind it is cell-based. The following applies: 4 days, anti-CD3 0.1 μg/ml, SD282 50, 250, 500 μM, FK506 1, 5 nM, combination FK506 1, 5 nM + SD282 250 μM. As for the experimental part:
as §1
The T cell response regulates the activity of Th17 (T helper 17 cell)/IL-17 (Interleukin 17) and IL-17 is classified as an inflammatory cytokine. […] We also evaluated inhibitory activity against inflammatory cytokines according to the treatments with SD282 and FK506 alone or in combination. The untreated syngenic group and the untreated allogenic group of Example 1-1 were used as controls. The allogenic models were treated with 50, 250 and 500 μM of SD282 alone or 1 and 5 nM of FK506 alone. And, FK506 (1 and 5 nM) and SD282 (250 μM) were treated in combination, respectively. After the treatments, each group was cultured for 4 days and then stimulated with anti-CD3 (0.1 μg/ml). The inhibitory efficacy against IL-17+CD4+ T cells and IL-17 was evaluated by analyzing the cultured Th17 cells according to the ELISA method; and the proliferation of Fox3+ Treg cells was evaluated through the analysis of Treg cells.

The subject of test [1] is allogenic T cells (normal human PBMCs). As to the kind of experiment: T cell proliferation in normal human PBMCs (MLR, CFSE). In kind it is cell-based. The note with it: for proliferation of allogenic T cells (FIG. 13b): 4 days, FK506 1 and 5 nM, SD282 alone, combination FK506 1, 5 nM + SD282 250 μM. Details: T cell proliferation (FIG. 13a): dose or concentration left out as unconfirmed. The protocol: In order to evaluate the T cell proliferations according to the treatment with SD282 alone, FK506 alone, or in combination thereof in normal human PBMCs (peripheral blood mononuclear cells, PBMCs), mixed leukocyte reaction (MLR) and CFSE (carboxyfluorescein succinimidyl ester) staining were performed. An untreated syngenic group and an untreated allogenic group were used as controls. […] And, FK506 (1 and 5 nM) and SD282 (250 μM) were treated in combination, respectively. After the treatments, each group was cultured for 4 days and then alloresponses were evaluated by observing the T cell proliferations of the cultured cells, according to the 3H-thymidine incorporation method or the flow cytometry method.

The subject of a further test is Foxp3 Treg cells. As to the kind of experiment: Treg activity under Th17 differentiation condition in in vitro allogenic model (mouse cells). Type of test: cell-based. The note with it: 4 days, SD282 20 and 500 μM, FK506 1 and 5 nM, combination FK506 1, 5 nM + SD282 250 μM. The protocol: as §1
The allogenic models of Example 1-1 were treated with 20 and 500 μM of SD282 alone or 1 and 5 nM of FK506 alone. And, FK506 (1 and 5 nM) and SD282 (250 μM) were treated in combination, respectively. The isolated T cells were cultured for 4 days under the condition of Th17 cell differentiation so as to induce the differentiation to Th17 cells.

The subject of test [2] is PBMCs of a liver-transplanted patient. Put plainly: Microarray / KEGG pathway and gene regulation in PBMCs of a liver-transplanted patient. Type of test: cell-based, human. The note with it: CD3 stimulation, 48 hours, SD282 250 μM. The protocol: In order to investigate changes in the signal factors related to immune cell modulation according to drug treatments in the peripheral blood cells (PBMCs) of a liver-transplanted patient, the PBMCs were treated with 250 μM of SD282 alone, 5 nM of FK506 alone, and the combination thereof, under the condition of TCR stimulation (under the CD3 stimulation). After culturing for 48 hours, the microarray analyses thereof were carried out by Macrogen, Inc.

For another test, the system named is IL-17, IFN-γ and TNF-α. Put plainly: Inflammatory cytokines in normal human PBMCs under allo-response (ELISA). In kind it is cell-based. The note with it: allogenic, 4 days, compared to the group treated with FK506 alone. As for the experimental part:
In order to evaluate the inhibitions against the activities of inflammatory cytokines according to the treatment with SD282 alone, FK506 alone, or in combination thereof in normal human peripheral blood cells (PBMCs), an untreated syngenic group and an untreated allogenic group were used as controls. Allogenic models were treated with 5, 250 and 500 μM of SD282 alone or 1 and 5 nM of FK506 alone. And, 1 and 5 nM of FK506 and 250 μM SD282 were treated in combination, respectively. After the treatments, each group was cultured for 4 days and then the inhibitory effects against IL-17, IFN-γ and TNF-α in the cultured cells was evaluated according to the ELISA method, so as to evaluate alloresponses.
In general terms: ELISA stands for enzyme-linked immunosorbent assay.

As for `C=CC[C@@H]1/C=C(\C)C[C@H](C)C[C@H](OC)[C@H]2O[C@@](O)(C(=O)C(=O)N3CCCC[C@H]3C(=O)O[C@H](/C(C)=C/[C@@H]3CC[C@@H](O)[C@H](OC)C3)[C@H](C)[C@@H](O)CC1=O)[C@H](C)C[C@@H]2OC` [FK506, tacrolimus], the “T cell proliferation (3H-thymidine incorporation, FIG. 1)” value with allogenic T cells is “not effective”. The “T cell proliferation (flow cytometry, FIG. 2)” value in the test with allogenic T cells was “inhibited”. The figures for the “IL-17+CD4+ T cells (%) / proliferation of pathogenic Th17 cells” value in the test on pathogenic Th17 cells and in the test on pathogenic Th17 cells (listed as Fk506) were “did not effectively inhibit” and “inhibited”, respectively. Also, the “activity of the inflammatory cytokine IL-17 (ELISA)” value in the test on pathogenic Th17 cells is given as “did not effectively inhibit”; with pathogenic Th17 cells (listed as Fk506), “inhibited”. In addition, the “proliferation of allogenic T cells (FIG. 13b)” value in test [1] is “not effective”. The entries for the “proliferation of Treg cells (Foxp3, flow cytometry)” value in the test with Foxp3 Treg cells and in the test with Foxp3 Treg cells (listed as Fk506) were “did not increase” and “significantly increased”, respectively.

Take `CCN(C(=N)NC(=N)N)c1ccc(F)cc1` [SD282]: in the test with allogenic T cells, the “T cell proliferation (3H-thymidine incorporation, FIG. 1)” value was “significantly inhibited” and the “T cell proliferation (flow cytometry, FIG. 2)” value was “inhibited”. In the test with pathogenic Th17 cells, the “IL-17+CD4+ T cells (%) / proliferation of pathogenic Th17 cells” value is “inhibited” and the “activity of the inflammatory cytokine IL-17 (ELISA)” value is reported as “inhibited”. In addition, the “proliferation of allogenic T cells (FIG. 13b)” value in test [1] was “significantly inhibited”. The “T cell proliferation (FIG. 13a)” value in test [1] (4 days, or more of SD282 alone, compared to control group) is “inhibited”. The “various pathways increased in a liver-transplanted patient (KEGG)” value in test [2] is given as “inhibited”. Besides, in the test with IL-17, IFN-γ and TNF-α, the “activity of IFN-γ (ELISA)” value is reported as “more significantly inhibited”, the “activity of IL-17 (ELISA)” value is given as “more significantly inhibited” and the “activity of TNF-α (ELISA)” value is recorded as “more significantly inhibited”. Moreover, the “proliferation of Treg cells (Foxp3, flow cytometry)” value in the test on Foxp3 Treg cells was “significantly increased”.
